How the values were obtained:
[1] = test system: phospho-Tau; assay: Phospho-Tau assay using cultured rat cortical neurons (okadaic acid insult); format: cell-based; details: 30 nM okadaic acid; for hyperphosphorylation of Tau (pTau accumulation) induced by okadaic acid / Tau phosphorylated at Ser396: pretreatment; for hyperphosphorylation of Tau (pTau accumulation) induced by okadaic acid: rat cortical cultures, FIG. 14 and 15B; for Tau phosphorylated at Ser202/Thr205: 50 μM pretreatment; for Tau phosphorylated at Ser202/Thr205 / Tau phosphorylated at Ser396: rat cortical neurons
Procedure: Phospho-Tau Assay Using Cultured Rat Cortical Neurons. Primary cortical cell cultures were prepared as described previously.^2 Briefly, pregnant Sprague Dawley dams were euthanized at embryonic day 18 (E18), and the cortices of the pups were harvested. Cells were plated on poly-d-lysine coated plates at 15,000 cells per well. Cultures were maintained at 37° C. under an atmosphere containing 5% CO2. Plating media consisted of 10% heat-inactivated fetal bovine serum (FBS; Fisher) 1% penicillin-streptomycin (Fisher), and 0.5 mM glutamine (Life Technologies) in Neurobasal (Fisher). After 16-24 h, media was exchanged for replacement media consisting of IX B27 supplement (Fisher), 1% penicillin-streptomycin, 0.5 mM glutamine, and 12.5 μM glutamate in Neurobasal. On DIV6 and DIV13, 50% of media was removed, and feeding media containing 1×B27 supplement, 1% penicillin-streptomycin, 0.5 mM glutamine in Neurobasal was added with an additional 20% volume added to account for evaporation. On DIV14, the volume of each well was adjusted to 180 μL. Next, 1000× solutions of compounds in DMSO were diluted 1:100 into Neurobasal and 20 μL of the resulting solutions was added to the appropriate wells (total dilution=1:1000, 0.1% DMSO). For wells that were not treated with compounds, DMSO was diluted 1:100 into Neurobasal and 20 μL of the resulting solution was added to the appropriate wells. All treatments were randomized. After 24 h, 20 μL was removed from each well. […] After 1 h, neurons were fixed by removing 80% of the media and replacing it with a volume of 4% aqueous paraformaldehyde (ThermoFisher) equal to 50% of the working volume of the well. Then, the cells were incubated at room temperature for 15 min before the fixative was aspirated and each well was washed twice with DPBS. Cells were permeabilized using 0.2% Triton X-100 (ThermoFisher) in DPBS for 15 min at room temperature without shaking. Plates were blocked with blocking buffer (2% bovine serum albumin and […] in DPBS) overnight at 4° C. Then, plates were incubated overnight at 4° C. with gentle shaking in antibody dilution buffer (ADB) (1% bovine serum albumin and […] in DBPS) containing a chicken anti-MAP2 antibody (1:10,000; EnCor, CPCA-MAP2), guinea pig anti-Tau antibody (1:1000; Synaptic Systems), mouse anti-phosphoTau (Ser202/Thr205) antibody (1:1000; Invitrogen), and rabbit anti-phosphoTau (Ser396) antibody (1:1000; Invitrogen). Plates were washed twice with DPBS and once with ADB before being incubated for 1 h at room temperature in ADB containing an anti-chicken IgY secondary antibody conjugated to Alexa Fluor™ Plus 800 (1:1000; Invitrogen), an anti-mouse IgG secondary antibody conjugated to Alexa Fluor™ Plus 680 (1:1000; Invitrogen), an anti-guinea pig IgG secondary antibody conjugated to Alexa Fluor™ 596 (1:1000; Invitrogen), and an anti-rabbit IgG secondary antibody conjugated to Alexa Fluor™ Plus 488 (1:1000; Invitrogen). Plates were washed three times with DBPS, and after the final wash, 100 μL of DPBS was added per well before imaging on a CellInsight™ CX7 High Content Analysis imager at 20× with 12 ROIs taken per well with no bias to location and no overlap of the ROIs. Images were analyzed using Cellnomics Scan software (version 6.6.2). The compartmental analysis assay was used to measure the average intensity of each channel per field and determine the reported intensity ratios.

[2] = test system: C57BL/6J mice; assay: Head-twitch response; format: in vivo; details: for head-twitch response: intraperitoneal, up to 30 mg/kg
Procedure: (§1) Animals. Female C57BL/6J mice used in the head twitch response and locomotion assays, and Sprague Dawley dams used to generate embryonic cultures were obtained from Jackson Laboratory (Sacramento, CA). Mice were housed in a temperature- and humidity-controlled room maintained on a 12 h light/dark cycle in groups of four to five (same sex). Animals weighed between 17 and 30 g at the time of the experiments. All experimental procedures involving rodents were approved by the UC Davis Institutional Animal Care and Use Committee (IACUC) and adhered to principles described in the National Institutes of Health Guide for the Care and Use of Laboratory Animals. The University of California, Davis is accredited by the Association for Assessment and Accreditation of Laboratory Animal Care International (AAALAC).
(§2) Head-Twitch Response and Locomotion. Mice (9-10 weeks old) were injected intraperitoneally with compounds dissolved in 10% Kolliphor® EL (Sigma) and 10% DMSO in 0.9% saline (injection volume 5 mL/kg) or vehicle, placed in an empty cage, and filmed for 10 min. Locomotion was quantified using ANYmaze Video Tracking System, version 7.07 (Stoelting Co.). After 10 min, mice were then injected with 5-MeO-DMT dissolved in 0.9% saline (10 mg/kg, injection volume 5 mL/kg) or vehicle and filmed for 20 min. Cages were cleaned with 70% ethanol between experiments. […] The last 20 min of each video were scored by one trained observer blinded to the treatment conditions.

[3] = test system: embryonic rat cortical cultures; assay: Total neurite length in embryonic rat cortical cultures; format: cell-based; details: embryonic rat cortical cultures (DIV=0), treated for 72 h
Procedure: Each data point represents a well average from two independent cultures. Data are represented as mean f SEM. *p<0.05, **p<0.01, ***p<0.001, ****p<0.0001, as compared to the vehicle control following a one-way ANOVA with Dunnett's post hoc test. VEH=vehicle; DON=250 nM donepezil; OKA=30 nM okadaic acid.

[4] = test system: C57BL/6J mice; assay: Locomotion in open field chamber; format: in vivo; details: doses up to 30 mg/kg
Procedure: as §1
as §2, with “Co.).” for “Co.). After 10 min, mice were then injected with 5-MeO-DMT dissolved in 0.9% saline (10 mg/kg, injection volume 5 mL/kg) or vehicle and filmed for 20 min. Cages were cleaned with 70% ethanol between experiments.”

| Structure (SMILES) | hyperphosphorylation of Tau (pTau accumulation) induced by okadaic acid [1] | dampening of head-twitch response produced by 5-MeO-DMT ([2]; 30 mg/kg pretreatment, 10 mg/kg 5-MeO-DMT) | head-twitch response [2] | Tau phosphorylated at Ser202/Thr205 [1] | Tau phosphorylated at Ser396 [1] | average total neurite length per neuron [3] | total distance traveled in open field chamber [4] |
| --- | --- | --- | --- | --- | --- | --- | --- |
| COc1ccc2c(c1)[nH]c1c(C)nccc12 [Harmine, harmine] | prevents pTau accumulation in cortical neurons |  |  |  |  |  |  |
| COc1ccc2c3ccnc(C)c3n(CCN(C)C)c2c1.O=C(O)/C=C/C(=O)O [HTW_A_8 fumarate, 2-(7-methoxy-1-methyl-9H-pyrido[3,4-b]indol-9-yl)-N,N-dimethylethan-1-amine Fumarate Salt (2:3)] | blocks hyperphosphorylation of Tau | sufficient to dampen the head-twitch response | failed to produce a head-twitch response | can block an increase in Tau phosphorylated at Ser202/Thr205 | no reduction | significantly increase average total neurite length per neuron | do not significantly affect the total distance traveled |
| COc1ccc2c(c1)N(CCN(C)C)/C(=C/C(C)=O)S2.O=C(O)/C=C/C(=O)O [HTW_B_14 fumarate, (Z)-1-(3-(2-(dimethylamino)ethyl)-5-methoxybenzo[d]thiazol-2(3H)-ylidene)propan-2-one Fumarate Salt (1:1)] |  |  | failed to produce a head-twitch response | not observed | no reduction | significantly increase average total neurite length per neuron | do not significantly affect the total distance traveled |
